Experimental data published in patent US20190016689A1, “NOVEL FLUORINATED QUINAZOLINE DERIVATIVES AS EGFR INHIBITORS” (TRILLIUM THERAPEUTICS INC., priority 2016, published 2019).
pIC50: −log10 of the molar value.

Tests used:
EPHA1 = target: T1, EPHA1 (Homo sapiens, UniProt P21709); experiment: Binding to EPHA (kinase competition binding, qPCR); conditions: 300 nM, read-out: % Control @ 300 nM
T1 construct: T7 phage fusion (kinase-tagged phage) or DNA tag for qPCR; made in house; host or cells: E. coli BL21-derived host (T7 phage) or HEK-293
T1 sequence (P21709 26-976): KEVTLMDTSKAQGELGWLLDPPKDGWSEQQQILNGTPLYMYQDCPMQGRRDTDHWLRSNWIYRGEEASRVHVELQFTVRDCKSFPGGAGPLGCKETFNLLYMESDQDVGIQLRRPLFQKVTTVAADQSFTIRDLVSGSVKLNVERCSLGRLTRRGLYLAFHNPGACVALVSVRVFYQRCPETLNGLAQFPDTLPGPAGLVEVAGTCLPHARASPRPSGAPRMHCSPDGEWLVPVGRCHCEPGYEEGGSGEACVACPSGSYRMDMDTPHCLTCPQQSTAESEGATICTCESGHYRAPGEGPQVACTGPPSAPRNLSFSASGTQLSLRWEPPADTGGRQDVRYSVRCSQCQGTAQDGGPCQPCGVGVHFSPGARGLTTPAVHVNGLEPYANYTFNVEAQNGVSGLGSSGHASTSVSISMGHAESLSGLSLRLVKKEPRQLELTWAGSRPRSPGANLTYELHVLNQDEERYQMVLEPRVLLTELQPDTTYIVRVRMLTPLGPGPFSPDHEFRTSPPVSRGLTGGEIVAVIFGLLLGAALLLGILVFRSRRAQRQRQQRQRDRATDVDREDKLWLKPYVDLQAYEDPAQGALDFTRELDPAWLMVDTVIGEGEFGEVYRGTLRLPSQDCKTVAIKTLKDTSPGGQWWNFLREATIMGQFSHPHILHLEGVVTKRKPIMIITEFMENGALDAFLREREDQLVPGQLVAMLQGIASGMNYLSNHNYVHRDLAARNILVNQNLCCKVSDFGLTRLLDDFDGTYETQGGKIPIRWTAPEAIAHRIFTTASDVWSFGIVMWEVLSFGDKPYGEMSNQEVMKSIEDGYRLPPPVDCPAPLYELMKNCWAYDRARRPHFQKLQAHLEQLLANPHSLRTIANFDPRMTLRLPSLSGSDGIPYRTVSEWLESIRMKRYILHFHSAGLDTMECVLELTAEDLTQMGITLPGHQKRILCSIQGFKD
Experimental: (§1) The lysates were centrifuged and filtered to remove cell debris. […] All reactions were performed in polystyrene 96-well plates in a final volume of 0.135 ml.

EPHA2 = target: T2, EPHA2 (Homo sapiens, UniProt P29317); experiment: Binding to EPHA (kinase competition binding, qPCR); conditions: 300 nM, read-out: % Control @ 300 nM
T2 construct: T7 phage fusion (kinase-tagged phage) or DNA tag for qPCR; made in house; host or cells: E. coli BL21-derived host (T7 phage) or HEK-293
Experimental: as §1

EPHA3 = target: T3, EPHA3 (Homo sapiens, UniProt P29320); experiment: Binding to EPHA (kinase competition binding, qPCR); conditions: 300 nM, read-out: % Control @ 300 nM
T3 construct: T7 phage fusion (kinase-tagged phage) or DNA tag for qPCR; made in house; host or cells: E. coli BL21-derived host (T7 phage) or HEK-293
Experimental: as §1

EPHA4 = target: T4, EPHA4 (Homo sapiens, UniProt P54764); experiment: Binding to EPHA (kinase competition binding, qPCR); conditions: 300 nM, read-out: % Control @ 300 nM
T4 construct: T7 phage fusion (kinase-tagged phage) or DNA tag for qPCR; made in house; host or cells: E. coli BL21-derived host (T7 phage) or HEK-293
Experimental: as §1

EPHA5 = target: T5, EPHA5 (Homo sapiens, UniProt P54756); experiment: Binding to EPHA (kinase competition binding, qPCR); conditions: 300 nM, read-out: % Control @ 300 nM
T5 construct: T7 phage fusion (kinase-tagged phage) or DNA tag for qPCR; made in house; host or cells: E. coli BL21-derived host (T7 phage) or HEK-293
T5 sequence (P54756 25-1037): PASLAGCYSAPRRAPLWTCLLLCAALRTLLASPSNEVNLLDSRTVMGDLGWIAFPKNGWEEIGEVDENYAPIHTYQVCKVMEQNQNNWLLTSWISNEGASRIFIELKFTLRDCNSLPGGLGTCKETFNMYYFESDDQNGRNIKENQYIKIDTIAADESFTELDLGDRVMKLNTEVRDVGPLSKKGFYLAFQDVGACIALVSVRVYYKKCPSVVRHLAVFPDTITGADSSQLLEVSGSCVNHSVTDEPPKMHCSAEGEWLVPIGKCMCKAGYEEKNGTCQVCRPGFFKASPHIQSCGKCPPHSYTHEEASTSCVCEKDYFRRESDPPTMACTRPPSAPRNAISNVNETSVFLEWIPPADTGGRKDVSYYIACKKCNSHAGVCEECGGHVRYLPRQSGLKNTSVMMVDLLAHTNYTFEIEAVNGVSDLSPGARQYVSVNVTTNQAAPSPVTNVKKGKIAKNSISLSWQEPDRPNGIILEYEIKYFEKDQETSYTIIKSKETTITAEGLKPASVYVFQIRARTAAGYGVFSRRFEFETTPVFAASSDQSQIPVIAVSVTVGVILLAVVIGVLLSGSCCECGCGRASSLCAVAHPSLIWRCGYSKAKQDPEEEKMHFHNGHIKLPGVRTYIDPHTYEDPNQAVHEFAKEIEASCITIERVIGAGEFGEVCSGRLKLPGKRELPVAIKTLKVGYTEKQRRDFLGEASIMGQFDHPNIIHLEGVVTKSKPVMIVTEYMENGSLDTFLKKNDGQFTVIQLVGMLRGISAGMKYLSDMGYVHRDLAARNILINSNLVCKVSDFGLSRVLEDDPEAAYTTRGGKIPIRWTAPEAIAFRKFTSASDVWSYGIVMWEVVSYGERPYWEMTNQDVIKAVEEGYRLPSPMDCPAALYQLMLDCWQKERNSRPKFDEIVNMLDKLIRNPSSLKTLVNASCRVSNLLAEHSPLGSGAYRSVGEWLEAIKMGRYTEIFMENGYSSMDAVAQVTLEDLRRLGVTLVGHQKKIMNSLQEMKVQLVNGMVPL
Experimental: as §1

EPHA7 = target: T6, EPHA7 (Homo sapiens, UniProt Q15375); experiment: Binding to EPHA (kinase competition binding, qPCR); conditions: 300 nM, read-out: % Control @ 300 nM
T6 construct: T7 phage fusion (kinase-tagged phage) or DNA tag for qPCR; made in house; host or cells: E. coli BL21-derived host (T7 phage) or HEK-293
Experimental: as §1

EPHA8 = target: T7, EPHA8 (Homo sapiens, UniProt P29322); experiment: Binding to EPHA (kinase competition binding, qPCR); conditions: 300 nM, read-out: % Control @ 300 nM
T7 construct: T7 phage fusion (kinase-tagged phage) or DNA tag for qPCR; made in house; host or cells: E. coli BL21-derived host (T7 phage) or HEK-293
Experimental: as §1

COLO205 = experiment: NCI screening panel (SRB); type: cell-based; conditions: Homo sapiens, COLO 205, COLO205 (Colon), 48 h; for CC50: read-out: LC50 (the source's name)
HCT-15 = experiment: NCI screening panel (SRB); type: cell-based; conditions: Homo sapiens, HCT-15 (Colon), 48 h; for CC50: read-out: LC50 (the source's name)
SW-620 = experiment: NCI screening panel (SRB); type: cell-based; conditions: Homo sapiens, SW-620 (Colon), 48 h; for CC50: read-out: LC50 (the source's name)
SNB-19 = experiment: NCI screening panel (SRB); type: cell-based; conditions: Homo sapiens, SNB-19 (CNS), 48 h; for CC50: read-out: LC50 (the source's name)
OVCAR-8 = experiment: NCI screening panel (SRB); type: cell-based; conditions: Homo sapiens, OVCAR-8 (Ovarian), 48 h; for CC50: read-out: LC50 (the source's name)
MDA-MB-231/ATCC = experiment: NCI screening panel (SRB); type: cell-based; conditions: Homo sapiens, MDA-MB-231/ATCC (Breast), 48 h; for CC50: read-out: LC50 (the source's name)
BT-549 = experiment: NCI screening panel (SRB); type: cell-based; conditions: Homo sapiens, BT-549 (Breast), 48 h; for CC50: read-out: LC50 (the source's name)
MDA-MB-468 = experiment: NCI screening panel (SRB); conditions: Homo sapiens, MDA-MB-468, 48 h; for CC50: read-out: LC50
EGFR (G719S) = EGFR (G719S) (Homo sapiens, UniProt P00533, G719S); experiment: Kinase assays, selectivity panel (qPCR); conditions: read-out: % Control @ 300 nM
[1] = target: EGFR (L747-E749del, A750P) (Homo sapiens, UniProt P00533, A750P/DEL747-749); experiment: Kinase assays, selectivity panel (qPCR); conditions: read-out: % Control @ 300 nM
EGFR (L858R) = EGFR (L858R) (Homo sapiens, UniProt P00533, L858R); experiment: Kinase assays, selectivity panel (qPCR); conditions: read-out: % Control @ 300 nM
ERBB4 = ERBB4 (Homo sapiens, UniProt Q15303); experiment: Kinase assays, selectivity panel (qPCR); conditions: read-out: % Control @ 300 nM
Sequence of ERBB4 (Q15303 26-1308): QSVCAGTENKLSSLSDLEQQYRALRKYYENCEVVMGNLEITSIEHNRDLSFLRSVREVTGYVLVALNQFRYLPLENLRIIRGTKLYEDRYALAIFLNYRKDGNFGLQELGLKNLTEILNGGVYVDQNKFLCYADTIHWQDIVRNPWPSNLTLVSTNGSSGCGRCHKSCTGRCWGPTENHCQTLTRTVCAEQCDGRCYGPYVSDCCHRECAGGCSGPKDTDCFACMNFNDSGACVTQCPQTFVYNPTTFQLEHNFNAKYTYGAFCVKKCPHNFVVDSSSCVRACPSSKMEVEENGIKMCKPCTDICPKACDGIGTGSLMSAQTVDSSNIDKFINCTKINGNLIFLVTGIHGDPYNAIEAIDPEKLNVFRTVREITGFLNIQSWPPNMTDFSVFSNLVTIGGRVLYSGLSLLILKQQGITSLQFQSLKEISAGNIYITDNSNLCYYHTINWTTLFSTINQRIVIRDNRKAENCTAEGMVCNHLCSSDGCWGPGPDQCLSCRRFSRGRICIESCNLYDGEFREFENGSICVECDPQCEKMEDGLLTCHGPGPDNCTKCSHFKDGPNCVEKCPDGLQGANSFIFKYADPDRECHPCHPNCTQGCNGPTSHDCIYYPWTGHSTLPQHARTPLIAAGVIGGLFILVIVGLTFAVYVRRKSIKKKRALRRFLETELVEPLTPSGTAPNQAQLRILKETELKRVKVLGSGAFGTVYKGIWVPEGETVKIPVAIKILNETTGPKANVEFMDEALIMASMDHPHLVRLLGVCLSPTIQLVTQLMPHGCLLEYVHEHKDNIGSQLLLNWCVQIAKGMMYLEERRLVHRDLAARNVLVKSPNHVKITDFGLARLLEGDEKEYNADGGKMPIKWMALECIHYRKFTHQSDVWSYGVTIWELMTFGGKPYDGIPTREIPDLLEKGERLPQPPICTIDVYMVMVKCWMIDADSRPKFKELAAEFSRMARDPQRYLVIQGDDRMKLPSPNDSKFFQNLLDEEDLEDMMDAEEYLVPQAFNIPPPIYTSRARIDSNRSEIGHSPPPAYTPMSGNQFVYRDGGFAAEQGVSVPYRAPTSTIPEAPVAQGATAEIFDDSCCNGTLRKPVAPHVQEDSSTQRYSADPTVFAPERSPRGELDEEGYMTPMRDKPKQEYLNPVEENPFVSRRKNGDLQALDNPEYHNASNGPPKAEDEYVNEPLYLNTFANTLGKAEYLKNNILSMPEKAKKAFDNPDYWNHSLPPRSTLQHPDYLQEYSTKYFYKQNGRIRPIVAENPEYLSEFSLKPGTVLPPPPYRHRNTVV

BLK (B-lymphoid TK) = BLK (B-lymphoid TK) (Homo sapiens, UniProt P51451); experiment: Kinase assays, selectivity panel (qPCR); conditions: read-out: % Control @ 300 nM
CYP 1A2 = CYP 1A2 (Homo sapiens, UniProt P05177); experiment: CYP450 inhibition; type: in vitro ADME
Sequence of CYP 1A2 (P05177 whole entry): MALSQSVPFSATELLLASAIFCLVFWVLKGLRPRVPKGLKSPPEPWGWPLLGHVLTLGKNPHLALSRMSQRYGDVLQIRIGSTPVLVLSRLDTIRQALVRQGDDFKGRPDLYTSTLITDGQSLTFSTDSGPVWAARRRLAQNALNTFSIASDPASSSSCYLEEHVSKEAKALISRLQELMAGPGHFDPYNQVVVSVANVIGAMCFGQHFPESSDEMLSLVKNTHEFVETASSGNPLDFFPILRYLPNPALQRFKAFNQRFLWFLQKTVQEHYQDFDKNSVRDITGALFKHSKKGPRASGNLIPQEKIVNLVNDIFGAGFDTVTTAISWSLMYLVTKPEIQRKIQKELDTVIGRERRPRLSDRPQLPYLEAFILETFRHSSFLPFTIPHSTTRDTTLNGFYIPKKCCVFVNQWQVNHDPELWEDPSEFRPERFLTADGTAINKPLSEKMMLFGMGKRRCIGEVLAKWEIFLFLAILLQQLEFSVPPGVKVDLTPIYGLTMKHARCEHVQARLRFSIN
Experimental: (§2) Prepare stock solutions of the test compound and positive control compounds described in Table 8 in DMSO at 0, 0.2, 1, 2, 10, 50, 200, 2000 and 10000 μM. Transfer 1 μL of the stock solutions to the Incubation Plate. The final concentrations of test compound or positive control compound are 0, 0.001, 0.005, 0.01, 0.05, 0.25, 1, 10 and 50 μM. All experiments are performed in duplicate.

CYP 2C19 = CYP 2C19 (Homo sapiens, UniProt P33261); experiment: CYP450 inhibition; type: in vitro ADME
Sequence of CYP 2C19 (P33261 whole entry): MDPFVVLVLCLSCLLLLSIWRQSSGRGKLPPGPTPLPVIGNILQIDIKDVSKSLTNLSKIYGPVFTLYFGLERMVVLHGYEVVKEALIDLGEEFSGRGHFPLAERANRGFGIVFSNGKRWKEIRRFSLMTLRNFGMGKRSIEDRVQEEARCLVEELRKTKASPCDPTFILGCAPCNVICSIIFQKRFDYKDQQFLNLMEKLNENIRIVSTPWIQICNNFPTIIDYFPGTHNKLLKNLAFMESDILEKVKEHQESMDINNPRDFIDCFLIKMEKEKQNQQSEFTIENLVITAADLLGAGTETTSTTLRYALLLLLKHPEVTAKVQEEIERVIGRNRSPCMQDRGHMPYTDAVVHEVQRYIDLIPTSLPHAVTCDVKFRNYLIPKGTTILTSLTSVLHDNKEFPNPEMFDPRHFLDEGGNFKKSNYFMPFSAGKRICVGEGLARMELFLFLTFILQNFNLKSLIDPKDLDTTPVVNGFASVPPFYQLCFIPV
Experimental: as §2

CYP 2C9 = CYP 2C9 (Homo sapiens, UniProt P11712); experiment: CYP450 inhibition; type: in vitro ADME
Experimental: as §2

CYP 2D6 = CYP 2D6 (Homo sapiens, UniProt P10635); experiment: CYP450 inhibition; type: in vitro ADME
Sequence of CYP 2D6 (P10635 whole entry): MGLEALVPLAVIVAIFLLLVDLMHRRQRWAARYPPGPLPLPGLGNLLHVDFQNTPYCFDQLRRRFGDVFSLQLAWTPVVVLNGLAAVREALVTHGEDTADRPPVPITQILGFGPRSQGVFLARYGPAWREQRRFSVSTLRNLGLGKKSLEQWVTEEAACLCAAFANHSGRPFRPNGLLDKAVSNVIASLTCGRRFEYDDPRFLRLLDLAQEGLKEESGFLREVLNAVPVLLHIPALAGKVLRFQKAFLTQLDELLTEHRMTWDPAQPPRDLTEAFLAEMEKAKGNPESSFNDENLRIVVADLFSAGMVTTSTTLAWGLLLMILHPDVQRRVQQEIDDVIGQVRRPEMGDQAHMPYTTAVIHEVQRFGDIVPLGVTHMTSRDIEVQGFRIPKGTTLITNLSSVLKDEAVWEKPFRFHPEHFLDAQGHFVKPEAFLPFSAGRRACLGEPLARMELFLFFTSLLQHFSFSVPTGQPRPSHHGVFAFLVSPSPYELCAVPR
Experimental: as §2

Structure (SMILES)	remaining binding at 0.3 µM (EPHA1) [%]	remaining binding at 0.3 µM (EPHA2) [%]	remaining binding at 0.3 µM (EPHA3) [%]	remaining binding at 0.3 µM (EPHA4) [%]	remaining binding at 0.3 µM (EPHA5) [%]	remaining binding at 0.3 µM (EPHA7) [%]	remaining binding at 0.3 µM (EPHA8) [%]	GI50 (COLO205) [µM]	CC50 (COLO205) [µM]	GI50 (HCT-15) [µM]	CC50 (HCT-15) [µM]	GI50 (SW-620) [µM]	CC50 (SW-620) [µM]	GI50 (SNB-19) [µM]	CC50 (SNB-19) [µM]	GI50 (OVCAR-8) [µM]	CC50 (OVCAR-8) [µM]	GI50 (MDA-MB-231/ATCC) [µM]	CC50 (MDA-MB-231/ATCC) [µM]	GI50 (BT-549) [µM]	other results
CN(C)C/C=C/C(=O)Nc1cc2c(Nc3ccc(F)c(Cl)c3F)ncnc2cc1OCCOC(F)F.O=C(O)/C=C\C(=O)O.O=C(O)/C=C\C(=O)O [Example I-9-MA, (E)-N-[4-(3-chloro-2,4-difluoro-anilino)-7-[2-(difluoromethoxy)ethoxy]quinazolin-6-yl]-4-(dimethylamino)but-2-enamide di-maleic acid salt]	34	92	46	51	51	56	40	1.23	31.7	0.675	9.46	1.52	52.7	1.6	36.6	1.09	32.7	0.391	28.8	1.69	CC50 (BT-549): 32.2 µM; GI50 (MDA-MB-468): < 0.01 µM; CC50 (MDA-MB-468): 0.701 µM; remaining activity at 0.3 µM (EGFR (G719S)): 0.15%; remaining activity at 0.3 µM [1]: 0.45%; remaining activity at 0.3 µM (EGFR (L858R)): 0%; remaining activity at 0.3 µM (ERBB4): 1.8%; remaining activity at 0.3 µM (BLK (B-lymphoid TK)): 0.5%
CN(C)C/C=C/C(=O)Nc1cc2c(Nc3ccc(F)c(Cl)c3)ncnc2cc1O[C@H]1CCOC1 [Afatinib, reference compound]	–	–	–	–	–	–	–	–	–	–	–	–	–	–	–	–	–	–	–	–	pIC50 (CYP 1A2): < 4.30; pIC50 (CYP 2C19): 4.32; pIC50 (CYP 2C9): 4.46; pIC50 (CYP 2D6): 4.55
O=C(/C=C/CN1CCCCC1)Nc1cc2c(Nc3ccc(F)c(Cl)c3F)ncnc2cc1OCCOC(F)F.O=C(O)/C=C\C(=O)O.O=C(O)/C=C\C(=O)O [Example I-10-MA, (E)-N-[4-(3-chloro-2,4-difluoro-anilino)-7-[2-(difluoromethoxy)ethoxy]quinazolin-6-yl]-4-(1-piperidyl)but-2-enamide di-maleic acid salt]	24	80	45	50	49	40	33	1.74	> 100	1.34	23	1.81	34.7	2.16	68.8	1.35	> 100	1.15	17.6	2.47	CC50 (BT-549): 36.2 µM; GI50 (MDA-MB-468): < 0.01 µM; CC50 (MDA-MB-468): 6.93 µM; remaining activity at 0.3 µM (EGFR (G719S)): 0%; remaining activity at 0.3 µM [1]: 0.9%; remaining activity at 0.3 µM (EGFR (L858R)): 0.4%; remaining activity at 0.3 µM (ERBB4): 3.2%; remaining activity at 0.3 µM (BLK (B-lymphoid TK)): 0.3%
CN(C)C/C=C/C(=O)Nc1cc2c(Nc3cccc(Cl)c3F)ncnc2cc1OCCOC(F)F.O=C(O)/C=C\C(=O)O [Example I-5-MA, (E)-N-[4-(3-chloro-2-fluoro-anilino)-7-[2-(difluoromethoxy)ethoxy]quinazolin-6-yl]-4-(dimethylamino)but-2-enamide dimaleic acid salt]	–	–	–	–	–	–	–	–	–	–	–	–	–	–	–	–	–	–	–	–	pIC50 (CYP 1A2): < 4.30; pIC50 (CYP 2C19): 4.54; pIC50 (CYP 2C9): 4.52; pIC50 (CYP 2D6): 4.59
